# Key:
# [1] = test system: morningglory; test: Test B pre/postemergence morningglory; assay type: in vivo, Ipomoea hederacea; conditions: for Morningglory plant response rating (0 to 10 scale): 0 is no effect
# How it was run: (§1)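 Response is a visual 0-to-10 score relative to untreated plants, where 0 means no effect and 10 means complete control, taken twelve to sixteen days after application. Treatments went onto soil at planting and onto foliage of 1- to 4-leaf plants, using a surfactant-containing non-phytotoxic solvent.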
# [2] = test system: duck salad; test: Test B flood test duck salad; assay type: in vivo, Heteranthera limosa
# How it was run: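 Flood test on plants grown to the 2-leaf stage; treated plants kept in greenhouse twelve to sixteen days, then visually rated against controls on a 0 (no effect) to 10 (complete control) scale.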
# [3] = test system: common ragweed; test: Test D common ragweed; assay type: in vivo, Ambrosia elatior; conditions: Preemergence, 0 to 100 scale
# How it was run: (§2)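 Visual injury ratings, 0 = no injury to 100 = complete control, taken 14 to 21 days after treatment. Test chemicals were in a surfactant-containing non-phytotoxic solvent; preemergence treatments went onto the sandy loam surface of seeded greenhouse pots within one day of sowing.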
# [4] = test system: blackgrass; test: Test E blackgrass; assay type: in vivo, Alopecurus myosuroides; conditions: Preemergence
# [5] = test system: green foxtail; test: Test E green foxtail; assay type: in vivo, Setaria viridis; conditions: Preemergence
# [6] = test system: rape; test: Test B pre/postemergence rape; assay type: in vivo, Brassica napus; conditions: for Rape plant response rating (0 to 10 scale): 0 is no effect
# How it was run: as §1
# [7] = test system: common pursiane; test: Test D common purslane; assay type: in vivo, Portulaca oleracea
# How it was run: as §2
# [8] = test system: winter wheat; test: Test E winter wheat; assay type: in vivo, Triticum aestivum; conditions: Preemergence
# [9] = test system: wild oat; test: Test E wild oat; assay type: in vivo, Avena fatua; conditions: Preemergence
# [10] = test system: winter barley; test: Test E winter barley; assay type: in vivo, Hordeum vulgare; conditions: Preemergence
# [11] = test system: winter wheat; test: Test E winter wheat; assay type: in vivo, Triticum aestivum; conditions: Postemergence; for Plant response rating, Wheat (winter): 0 to 100 scale
# How it was run: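 Greenhouse test: for postemergence, foliar application at 1- to 4-leaf stage; compound in non-phytotoxic solvent with surfactant. Rating is visual, relative to untreated controls, about 21 to 28 days after treatment.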
# [12] = test system: wheat; test: Test B pre/postemergence wheat; assay type: in vivo, Triticum aestivum; conditions: for Wheat plant response rating (0 to 10 scale): 0 is no effect
# How it was run: as §1
# [13] = test system: Italian ryegrass; test: Test E Italian ryegrass; assay type: in vivo, Lolium multiflorum; conditions: Preemergence
# [14] = Postemergence, Rate 125 g/ha, scale of 0 to 10 where 0 is no effect and 10 is complete control
# [15] = Preemergence, Rate 62 g/ha, scale 0 to 10 (0 no effect, 10 complete control)
# [16] = Preemergence, Rate 125 g/ha, 10 is complete control
# [17] = Preemergence, Rate 250 g/ha, scale 0 to 10, 0 is no effect, 10 is complete control
# [18] = Preemergence, Rate 500 g/ha, scale 0 to 10 (0 no effect, 10 complete control)
# [19] = Rate 62 g/ha, Postemergence, scale of 0 to 10 where 0 is no effect and 10 is complete control
# [20] = Rate 250 g/ha, Postemergence, scale 0 to 10, 0 is no effect, 10 is complete control
# [21] = Rate 500 g/ha, Postemergence, scale 0 to 10
# [22] = Rate 16 g/ha, 0 no injury, 100 complete control
# [23] = Rate 32 g/ha, 0 no injury, 100 complete control
# [24] = Rate 64 g/ha, 0 no injury, 100 complete control
# [25] = Rate 125 g/ha, 0 no injury, 100 complete control
# [26] = Rate 62 g/ha, 0 to 100 scale, 0 no effect, 100 complete control
# [27] = Rate 125 g/ha, 0 to 100 scale (0 no effect, 100 complete control)
# [28] = Rate 500 g/ha, 0 to 100 scale where 0 is no effect and 100 is complete control
# [29] = Rate 16 g/ha; Preemergence; 0 to 100 scale, 0 no injury, 100 complete control
# [30] = Rate 32 g/ha; Preemergence; 0 to 100 scale, 0 no injury, 100 complete control
# [31] = Rate 64 g/ha, Preemergence; 0 to 100 scale, 0 no injury, 100 complete control
# [32] = Rate 125 g/ha, Preemergence; 0 to 100 scale, 0 no injury, 100 complete control
# [33] = Rate 250 g/ha; Preemergence; 0 to 100 scale
# [34] = Rate 500 g/ha; Preemergence; 0 to 100 scale
# [35] = Rate 31 g/ha, 0 to 100 scale, 0 no effect, 100 complete control
compound,measurement,setting,value
CC(C)N(C(=O)n1oc(=O)n(C(C)C)c1=O)c1ccc(F)cc1 [Compound 131],Morningglory plant response rating,[1]; [14],7
same,Morningglory plant response rating,[1]; [15],3
same,Morningglory plant response rating (0 to 10 scale),[1]; [16],3
same,Morningglory plant response rating,[1]; [17],5
same,Morningglory plant response rating,[1]; [18],7
same,Morningglory plant response rating,[1]; [19],7
same,"Plant response rating, Morningglory",[1]; [20],8
same,Morningglory plant response rating,[1]; [21],10
same,Ducksalad plant response rating,"[2]; Rate 62 g/ha, headed Pre-emergence (flood test species), scale 0 to 10 (0 no effect, 10 complete control)",0
same,Ducksalad plant response rating,"[2]; Rate 125 g/ha, Pre-emergence, flood test species, scale 0 to 10 where 0 is no effect and 10 is complete control",0
same,Ducksalad plant response rating,"[2]; Rate 250 g/ha, headed Pre-emergence (flood test species), scale 0 to 10 (0 no effect, 10 complete control)",7
same,"Plant response rating, Ducksalad","[2]; Rate 500 g/ha, headed Pre-emergence (flood test species), scale 0 to 10 (0 no effect, 10 complete control)",9
same,"Plant response rating, C. ragweed",[3]; [22],0
same,"Plant response rating, C. ragweed",[3]; [23],0
same,"Plant response rating, C. ragweed",[3]; [24],30
same,"Plant response rating, C. ragweed",[3]; [25],30
same,"Plant response rating, C. ragweed",[3]; Rate 250 g/ha,100
same,"Plant response rating, C. ragweed",[3]; Rate 500 g/ha,100
same,"Plant response rating, Blackgrass",[4]; [26],60
same,"Plant response rating, Blackgrass",[4]; [27],50
same,Blackgrass plant response rating (0 to 100 scale),[4]; Rate 250 g/ha,60
same,"Plant response rating, Blackgrass",[4]; [28],100
same,"Plant response rating, Green foxtail",[5]; [26],60
same,"Plant response rating, Green foxtail",[5]; [27],100
same,Green foxtail plant response rating (0 to 100 scale),[5]; Rate 250 g/ha,100
same,Rape plant response rating,[6]; [14],4
same,Rape plant response rating,[6]; [15],8
same,Rape plant response rating (0 to 10 scale),[6]; [16],10
same,Rape plant response rating,[6]; [17],10
same,Rape plant response rating,[6]; [18],10
same,Rape plant response rating,[6]; [19],1
same,"Plant response rating, Rape",[6]; [20],7
same,Rape plant response rating,[6]; [21],9
same,"Plant response rating, C. purslane",[7]; [29],0
same,"Plant response rating, C. purslane",[7]; [30],0
same,"Plant response rating, C. purslane",[7]; [31],0
same,"Plant response rating, C. purslane",[7]; [32],0
same,"Plant response rating, C. purslane",[7]; [33],10
same,"Plant response rating, C. purslane","[7]; Rate 500 g/ha, Preemergence; 0 to 100 scale",100
same,"Plant response rating, C. purslane",[7]; [34],10
same,"Plant response rating, Wheat (winter)",[8]; [26],50
same,"Plant response rating, Wheat (winter)",[8]; [27],35
same,Wheat (winter) plant response rating (0 to 100 scale),[8]; Rate 250 g/ha,60
same,"Plant response rating, Wheat (winter)",[8]; [28],95
same,"Plant response rating, Wild oat",[9]; [26],50
same,"Plant response rating, Wild oat",[9]; [27],50
same,Wild oat plant response rating (0 to 100 scale),[9]; Rate 250 g/ha,60
same,"Plant response rating, Wild oat",[9]; [28],100
same,"Plant response rating, Barley (winter)",[10]; [26],40
same,"Plant response rating, Barley (winter)",[10]; [27],65
same,Barley (winter) plant response rating (0 to 100 scale),[10]; Rate 250 g/ha,100
same,"Plant response rating, Barley (winter)",[10]; [28],100
same,"Plant response rating, Wheat (winter)",[11]; Rate 62 g/ha,50
same,"Plant response rating, Wheat (winter)",[11]; Rate 125 g/ha,60
same,"Plant response rating, Wheat (winter)","[11]; Rate 500 g/ha, 0 no effect, 100 complete control",20
same,Wheat (winter) plant response rating,"[11]; Rate 250 g/ha, 0 to 100 scale where 0 is no effect and 100 is complete control",0
same,Wheat plant response rating,[12]; [14],3
same,Wheat plant response rating,[12]; [15],2
same,Wheat plant response rating (0 to 10 scale),[12]; [16],8
same,Wheat plant response rating,[12]; [17],8
same,Wheat plant response rating,[12]; [18],10
same,Wheat plant response rating,[12]; [19],3
same,"Plant response rating, Wheat",[12]; [20],5
same,Wheat plant response rating,[12]; [21],6
same,"Plant response rating, I. Ryegrass",[13]; [26],70
same,"Plant response rating, I. Ryegrass",[13]; [27],100
same,I. Ryegrass plant response rating (0 to 100 scale),[13]; Rate 250 g/ha,100
same,"Plant response rating, I. Ryegrass",[13]; [28],100
C=CCn1c(=O)on(C(=O)N(c2ccc(F)cc2F)C(C)C)c1=O [Compound 151],Morningglory plant response rating,[1]; [15],0
same,Morningglory plant response rating (0 to 10 scale),[1]; [16],0
same,Morningglory plant response rating,[1]; [17],0
same,Morningglory plant response rating,[1]; [18],0
same,Morningglory plant response rating,[1]; [19],4
same,"Plant response rating, Morningglory",[1]; [20],6
same,Morningglory plant response rating,[1]; [21],6
same,Ducksalad plant response rating,"[2]; Postemergence (flood test species), Rate 125 g/ha, scale of 0 to 10 where 0 is no effect and 10 is complete control",0
same,Ducksalad plant response rating,"[2]; Rate 62 g/ha, Postemergence section, flood test species, scale of 0 to 10 where 0 is no effect and 10 is complete control",0
same,"Plant response rating, Ducksalad","[2]; Rate 250 g/ha, Postemergence (flood test), scale 0 to 10, 0 is no effect, 10 is complete control",0
same,Ducksalad plant response rating,"[2]; Rate 500 g/ha, listed under Postemergence (flood test species), scale 0 to 10",2
same,"Plant response rating, C. ragweed",[3]; [22],0
same,"Plant response rating, C. ragweed",[3]; [23],0
same,"Plant response rating, C. ragweed",[3]; [24],0
same,"Plant response rating, C. ragweed",[3]; [25],0
same,"Plant response rating, C. ragweed",[3]; Rate 250 g/ha,20
same,"Plant response rating, C. ragweed",[3]; Rate 500 g/ha,20
same,"Plant response rating, Blackgrass",[4]; [35],30
same,"Plant response rating, Blackgrass",[4]; [26],45
same,"Plant response rating, Blackgrass",[4]; [27],75
same,"Plant response rating, Green foxtail",[5]; [35],20
same,"Plant response rating, Green foxtail",[5]; [26],30
same,"Plant response rating, Green foxtail",[5]; [27],80
same,Rape plant response rating,[6]; [14],0
same,Rape plant response rating,[6]; [15],2
same,Rape plant response rating (0 to 10 scale),[6]; [16],8
same,Rape plant response rating,[6]; [17],10
same,Rape plant response rating,[6]; [18],10
same,Rape plant response rating,[6]; [19],0
same,"Plant response rating, Rape",[6]; [20],0
same,Rape plant response rating,[6]; [21],2
same,"Plant response rating, C. purslane",[7]; [29],0
same,"Plant response rating, C. purslane",[7]; [30],0
same,"Plant response rating, C. purslane",[7]; [31],0
same,"Plant response rating, C. purslane",[7]; [32],0
same,"Plant response rating, C. purslane",[7]; [33],0
same,"Plant response rating, C. purslane",[7]; [34],0
same,"Plant response rating, Wheat (winter)",[8]; [35],0
same,"Plant response rating, Wheat (winter)",[8]; [26],0
same,"Plant response rating, Wheat (winter)",[8]; [27],10
same,"Plant response rating, Wild oat",[9]; [35],10
same,"Plant response rating, Wild oat",[9]; [26],10
same,"Plant response rating, Wild oat",[9]; [27],20
same,"Plant response rating, Barley (winter)",[10]; [35],10
same,"Plant response rating, Barley (winter)",[10]; [26],10
same,"Plant response rating, Barley (winter)",[10]; [27],20
same,"Plant response rating, Wheat (winter)","[11]; Rate 31 g/ha, 0 no effect, 100 complete control",10
same,"Plant response rating, Wheat (winter)",[11]; Rate 62 g/ha,10
same,"Plant response rating, Wheat (winter)",[11]; Rate 125 g/ha,70
same,Wheat plant response rating,[12]; [15],2
same,Wheat plant response rating (0 to 10 scale),[12]; [16],2
same,Wheat plant response rating,[12]; [17],4
same,Wheat plant response rating,[12]; [18],5
same,Wheat plant response rating,[12]; [19],0
same,"Plant response rating, Wheat",[12]; [20],4
same,Wheat plant response rating,[12]; [21],8
same,"Plant response rating, I. Ryegrass",[13]; [35],20
same,"Plant response rating, I. Ryegrass",[13]; [26],30
same,"Plant response rating, I. Ryegrass",[13]; [27],50
